From PubChem BioAssay (NCI)
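Method: 48-hour compound exposure of cells in 96-well plates, five concentrations, linear interpolation of endpoints. Here, GI50 denotes the concentration required for 50% inhibition of growth. At the TGI there is no net growth.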

System: IGROV1 ovarian
Test: DTP human tumour cell line panel, 48 h

| SMILES | TGI [µM] |
| --- | --- |
| Cc1c(O)c(O)cc[n+]1C1OC(CO)C(O)C1O (configuration not stated) | > 100 |
| C=C1C(=O)O[C@@H]2C(=O)[C@@H](C)CCC/C(C)=C/CC[C@@]3(C)O[C@@H]3C[C@@H]12 | 45.7 |
| COc1ccc(-c2cc(O)c3nc4ccccc4n3c2)cc1 | > 100 |
| ClCCN1CCC2(CC1)SSC1(CCN(CCCl)CC1)S2 | > 100 |
| C1CN(c2nc3c(nnc4nc(N5CCOCC5)sc43)s2)CCO1 | > 100 |
| C1=C2/CC[C@H](Sc3ccccc3)C2C2(CCCCC/1)OCCO2 (some centres not stated) | > 100 |
| CCCCC#C[I+]c1ccccc1 | 36.4 |
| Nc1nc(SCCc2ccccc2)c2[nH]cnc2n1 | > 100 |
| Cc1ccc(-c2n[nH]c(=O)n2N2C(=O)c3ccccc3C2=O)cc1 | > 100 |
| COc1ccc(C2CC(c3c(O)ccc4ccccc34)=NN2C(C)=O)cc1OC (configuration not stated) | > 100 |
| COc1ccc2cc(NC(=O)N/N=C\c3ccc([N+](=O)[O-])cc3)ccc2c1 | > 100 |
| C[C@@H]1CC[C@]2(C(=O)O)CC[C@]3(C)C(=CC[C@@H]4[C@@]5(C)CC[C@H](O)C(C)(C)[C@@H]5CC[C@]43C)[C@@H]2[C@]1(C)O | 30.7 |
| O=C1CCCSC(=O)N1Cc1ccccc1 | > 100 |
| CC(C)(C)OC(=O)N[C@H]1CCN(C2CCCCC2)C1=O | > 100 |
| CCCN(C(=O)c1ccccc1)C(C#N)c1ccc(C(C#N)N(CCC)C(=O)c2ccccc2)cc1 (configuration not stated) | > 100 |
| N#Cc1c(-c2ccccc2)/c(=C\Nc2cccc(C(F)(F)F)c2)c(=O)n2c1nc1ccccc12 | > 100 |

| SMILES | TGI [µM] |
| --- | --- |
| S=C1Nc2ccccc2SC1c1ccccc1 (configuration not stated) | > 100 |
| c1ccc(N=c2sc3ccccc3nc2Nc2ccccc2)cc1 | > 100 |
| O=C1/C(=C/c2ccccc2)N=C2Sc3c(nc[nH]c3=O)N12 | > 100 |
| C=CC1(C)CCC2C(=CCC3C2(C)CC(O)C(O)C3(C)COC2OC(C(=O)O)C(O)C(O)C2O)C1 (configuration not stated) (tested in a mixture with another compound) | > 100 |
| N#CC1(C#N)N[C@@H](c2ccsc2)[C@H]2C(=O)N(c3ccccc3)C(=O)[C@H]21 | > 100 |
| O=C(CCN1CCCCC1)C(=Cc1ccccc1)C(=O)CCN1CCCCC1 | > 100 |
| O=c1ccc(-c2ccccc2)n[nH]1 | > 100 |
| CC(C)=CCc1c2c(c3occ(-c4ccc(O)cc4)c(=O)c3c1O)CC(C(C)(C)O)O2 (configuration not stated) | 12 |
| COc1ccc(-c2c(C#N)c(-c3ccc(C)cc3)n(NS(=O)(=O)c3ccc(C)cc3)c(=O)c2C#N)cc1 | > 100 |
| O=[N+]([O-])c1ccc2c(c1)c(OCc1ccccc1)nn2Cc1ccccc1 | > 100 |
| C#CCNC(CS)C(=O)O (configuration not stated) | > 100 |
| O=C1CCCc2cc3c(cc21)CC1(Cc2ccccc2C1)C3 | > 100 |
| Cc1ccc(Cl)c2[nH]c(-c3ccccc3)cc(=O)c12 | > 100 |
| NS(=O)(=O)c1ccc2c(c1)OCCOCCOCCOCCO2 | > 100 |
| CCOC(=O)/C=C/CC(C)(C)CCOC(C)=O | > 10 |

System: NCI/ADR-RES ovarian
Test: DTP human tumour cell line panel, 48 h

| SMILES | TGI [µM] |
| --- | --- |
| CCOC(=O)c1cn2c(n1)sc1cccc(C)c12 | > 100 |
| O=C1CSC(c2ccc(Cl)cc2)N1c1ccc(Oc2ccc(Cl)cc2)c(Cl)c1 (configuration not stated) | 35.3 |
| COC(CCC[N+](C)(C)C)CC[N+](C)(C)C (configuration not stated) | > 100 |
| Nc1nc(Cl)cc(NCC2(CO)CC(=O)C2)n1 | > 100 |
| CO/C(=N\N=C\c1ccc(C(F)(F)F)cc1)c1ccncc1 | > 10 |
| C=C1C(=O)O[C@@H]2C(=O)[C@@H](C)CCC/C(C)=C/CC[C@@]3(C)O[C@@H]3C[C@@H]12 | > 100 |
| O=C(NC(=O)c1ccccc1[N+](=O)[O-])Nc1ccc(Oc2ncc(Br)cn2)c(Cl)c1 | 0.0589 |
| COc1ccc(-c2cc(O)c3nc4ccccc4n3c2)cc1 | > 100 |
| ClCCN1CCC2(CC1)SSC1(CCN(CCCl)CC1)S2 | > 100 |
| C1CN(c2nc3c(nnc4nc(N5CCOCC5)sc43)s2)CCO1 | > 100 |
| Nc1nc(SCCc2ccccc2)c2[nH]cnc2n1 | > 100 |
| Cc1ccc(-c2n[nH]c(=O)n2N2C(=O)c3ccccc3C2=O)cc1 | > 100 |
| COc1ccc(C2CC(c3c(O)ccc4ccccc34)=NN2C(C)=O)cc1OC (configuration not stated) | > 100 |
| COc1ccc2cc(NC(=O)N/N=C\c3ccc([N+](=O)[O-])cc3)ccc2c1 | 97.2 |
| C[C@@H]1CC[C@]2(C(=O)O)CC[C@]3(C)C(=CC[C@@H]4[C@@]5(C)CC[C@H](O)C(C)(C)[C@@H]5CC[C@]43C)[C@@H]2[C@]1(C)O | 32.6 |
| O=C1CCCSC(=O)N1Cc1ccccc1 | > 100 |
| CC(C)(C)OC(=O)N[C@H]1CCN(C2CCCCC2)C1=O | > 100 |

| SMILES | TGI [µM] |
| --- | --- |
| CCCN(C(=O)c1ccccc1)C(C#N)c1ccc(C(C#N)N(CCC)C(=O)c2ccccc2)cc1 (configuration not stated) | > 100 |
| N#Cc1c(-c2ccccc2)/c(=C\Nc2cccc(C(F)(F)F)c2)c(=O)n2c1nc1ccccc12 | 80.4 |
| S=C1Nc2ccccc2SC1c1ccccc1 (configuration not stated) | > 100 |
| c1ccc(N=c2sc3ccccc3nc2Nc2ccccc2)cc1 | > 100 |
| O=C1/C(=C/c2ccccc2)N=C2Sc3c(nc[nH]c3=O)N12 | > 100 |
| N#CC1(C#N)N[C@@H](c2ccsc2)[C@H]2C(=O)N(c3ccccc3)C(=O)[C@H]21 | > 100 |
| O=C(CCN1CCCCC1)C(=Cc1ccccc1)C(=O)CCN1CCCCC1 | > 100 |
| O=c1ccc(-c2ccccc2)n[nH]1 | > 100 |
| CC(C)=CCc1c2c(c3occ(-c4ccc(O)cc4)c(=O)c3c1O)CC(C(C)(C)O)O2 (configuration not stated) | 40.6 |
| COc1ccc(-c2c(C#N)c(-c3ccc(C)cc3)n(NS(=O)(=O)c3ccc(C)cc3)c(=O)c2C#N)cc1 | > 100 |
| O=[N+]([O-])c1ccc2c(c1)c(OCc1ccccc1)nn2Cc1ccccc1 | > 100 |
| C#CCNC(CS)C(=O)O (configuration not stated) | > 100 |
| O=C1CCCc2cc3c(cc21)CC1(Cc2ccccc2C1)C3 | > 100 |
| Cc1ccc(Cl)c2[nH]c(-c3ccccc3)cc(=O)c12 | > 100 |
| COc1ccc2c(c1)/C(=C/CCN(C)C)c1ccccc1S2 | > 100 |
| CCOC(=O)/C=C/CC(C)(C)CCOC(C)=O | > 10 |

System: OVCAR-3 ovarian
Test: DTP human tumour cell line panel, 48 h

| SMILES | TGI [µM] | GI50 [µM] |
| --- | --- | --- |
| CCOC(=O)c1cn2c(n1)sc1cccc(C)c12 | > 100 | – |
| O=C1CSC(c2ccc(Cl)cc2)N1c1ccc(Oc2ccc(Cl)cc2)c(Cl)c1 (configuration not stated) | 29 | – |
| COC(CCC[N+](C)(C)C)CC[N+](C)(C)C (configuration not stated) | > 100 | – |
| CCC(C(=O)O)c1ccc(OC)cc1 (configuration not stated) | > 100 | – |
| Nc1nc(Cl)cc(NCC2(CO)CC(=O)C2)n1 | > 100 | – |
| CO/C(=N\N=C\c1ccc(C(F)(F)F)cc1)c1ccncc1 | > 10 | – |
| C=C1C(=O)O[C@@H]2C(=O)[C@@H](C)CCC/C(C)=C/CC[C@@]3(C)O[C@@H]3C[C@@H]12 | > 100 | – |
| CC1CCC(n2c3cnccc3c3cnc(Nc4ccc5c(n4)CCN(C(=O)CO)C5)nc32)CC1 (configuration not stated) | > 100 | > 100 |
| O=C(NC(=O)c1ccccc1[N+](=O)[O-])Nc1ccc(Oc2ncc(Br)cn2)c(Cl)c1 | 0.0767 | < 0.0158 |
| COc1ccc(-c2cc(O)c3nc4ccccc4n3c2)cc1 | > 100 | – |
| ClCCN1CCC2(CC1)SSC1(CCN(CCCl)CC1)S2 | 63.3 | – |
| C1CN(c2nc3c(nnc4nc(N5CCOCC5)sc43)s2)CCO1 | > 100 | – |
| C1=C2/CC[C@H](Sc3ccccc3)C2C2(CCCCC/1)OCCO2 (some centres not stated) | 72.1 | – |
| CCCCC#C[I+]c1ccccc1 | 30.7 | – |
| Nc1nc(SCCc2ccccc2)c2[nH]cnc2n1 | > 100 | – |
| Cc1ccc(-c2n[nH]c(=O)n2N2C(=O)c3ccccc3C2=O)cc1 | > 100 | – |
| COc1ccc(C2CC(c3c(O)ccc4ccccc34)=NN2C(C)=O)cc1OC (configuration not stated) | 69.6 | – |

| SMILES | TGI [µM] | GI50 [µM] |
| --- | --- | --- |
| COc1ccc2cc(NC(=O)N/N=C\c3ccc([N+](=O)[O-])cc3)ccc2c1 | > 100 | – |
| C[C@@H]1CC[C@]2(C(=O)O)CC[C@]3(C)C(=CC[C@@H]4[C@@]5(C)CC[C@H](O)C(C)(C)[C@@H]5CC[C@]43C)[C@@H]2[C@]1(C)O | 32.6 | – |
| O=C1CCCSC(=O)N1Cc1ccccc1 | > 100 | – |
| CCCN(C(=O)c1ccccc1)C(C#N)c1ccc(C(C#N)N(CCC)C(=O)c2ccccc2)cc1 (configuration not stated) | > 100 | – |
| S=C1Nc2ccccc2SC1c1ccccc1 (configuration not stated) | > 100 | – |
| O=C1/C(=C/c2ccccc2)N=C2Sc3c(nc[nH]c3=O)N12 | > 100 | – |
| C=CC1(C)CCC2C(=CCC3C2(C)CC(O)C(O)C3(C)COC2OC(C(=O)O)C(O)C(O)C2O)C1 (configuration not stated) (tested in a mixture with another compound) | > 100 | – |
| N#CC1(C#N)N[C@@H](c2ccsc2)[C@H]2C(=O)N(c3ccccc3)C(=O)[C@H]21 | > 100 | – |
| O=C(CCN1CCCCC1)C(=Cc1ccccc1)C(=O)CCN1CCCCC1 | > 100 | > 100 |
| O=c1ccc(-c2ccccc2)n[nH]1 | > 100 | – |
| CC(C)=CCc1c2c(c3occ(-c4ccc(O)cc4)c(=O)c3c1O)CC(C(C)(C)O)O2 (configuration not stated) | 27.9 | – |
| O=[N+]([O-])c1ccc2c(c1)c(OCc1ccccc1)nn2Cc1ccccc1 | > 100 | – |
| C#CCNC(CS)C(=O)O (configuration not stated) | > 100 | – |
| O=C1CCCc2cc3c(cc21)CC1(Cc2ccccc2C1)C3 | 6.1 | – |
| Cc1ccc(Cl)c2[nH]c(-c3ccccc3)cc(=O)c12 | > 100 | – |
| COc1ccc2c(c1)/C(=C/CCN(C)C)c1ccccc1S2 | > 100 | – |
| CCOC(=O)/C=C/CC(C)(C)CCOC(C)=O | > 10 | – |

System: OVCAR-5 ovarian
Test: DTP human tumour cell line panel, 48 h

| SMILES | TGI [µM] |
| --- | --- |
| CCOC(=O)c1cn2c(n1)sc1cccc(C)c12 | > 100 |
| O=C1CSC(c2ccc(Cl)cc2)N1c1ccc(Oc2ccc(Cl)cc2)c(Cl)c1 (configuration not stated) | 29.6 |
| COC(CCC[N+](C)(C)C)CC[N+](C)(C)C (configuration not stated) | > 100 |
| CCC(C(=O)O)c1ccc(OC)cc1 (configuration not stated) | > 100 |
| Nc1nc(Cl)cc(NCC2(CO)CC(=O)C2)n1 | > 100 |
| CO/C(=N\N=C\c1ccc(C(F)(F)F)cc1)c1ccncc1 | > 10 |
